The record followed here is US8987449B2, “Medicine for treating ischemic brain injury and its sequelae, and preparation method thereof” (Haimin Lei, priority 2011, dated 2015).

SMILES strings stand for the structures.

What all share (format): in vivo, rat
The test system of assay [1] is SOD. Nature of the assay: SOD of MCAO rats (brain homogenate, kit). Conditions: model group 40.28 ± 7.51. The procedure: (§1) 10% chloral hydrate 0.35 g/kg was injected into the abdominal cavity of a rat to anesthetize thereof. The rat was fixed as supine position. The skin was disinfected thereof by 75% medical alcohol. It was cut right in the middle of the neck. The right common carotid artery, internal carotid artery and external carotid artery were separated and the common carotid artery and external carotid artery were ligated. The internal carotid artery was clamped with a bulldog clamp. A cut was made at the crotch of the external carotid artery and the internal carotid artery followed by releasing the bulldog clamp. The nylon wire (diameter 0.25 mm, marked at a distance of 18 mm from the head end) was inserted into the cut and the insertion was stopped when some resistance was felt. The insert depth was a little longer than 18 mm to achieve the cerebral ischemia caused by middle cerebral artery occlusion. The internal carotid artery was ligated and the nylon wire was fixed. The muscle and skin were sutured layer by layer. In sham operation group, the right common carotid artery, the external carotid artery and the internal carotid artery were only exposed and separated. The rats were conventionally raised in different cages regularly. 0.5 ml penicillin was continuously injected into every rat for three days after the surgery.
(§2) The rats were divided into 7 groups in the experiment, that is, sham operation group, model group, Nimodipine group, LQC-T4 large dosage group, LQC-T4 small dosage group, TMP group, and TMP+Vanillic acid group. The model rats getting 1 point were distributed randomly into the model group and other administration group, while the rats getting 2 point and 3 point were distributed randomly into above 6 groups according the above method and sham operation group was not involved in the above grouping. 0.5% CMC-NA (1 ml·100 g^−1) was administrated intragastrically to the blank control group and the model group, two dosage group of 120 mg·kg^−1, 60 mg·kg^−1 were administrated intragastrically to the LQC-T4 (1 ml·100 g^−1) group, and 74 mg·kg^−1 TMP+46 mg·kg^−1 vanillitc acid (1 ml·100 g^−1) were administrated intragastrically, once per day continuously for 10 days.
(§3) 10% chloral hydrate 0.35 g/kg was injected into the abdominal cavity to anesthetize them after the rats were administrated for 10 days. The head was cut and the brain was taken. The cranial bones were stripped, the meninges were peeled off to separate the ischemia side of the brain, the blood streak was striped and then the brain was weighed. 4 times amount of 0.9 physiological saline was added and the brain was homogenized in 0° C. ice bath. […]
(§4) It was detected with 722 type visible spectrophotometer according to the kit operation. […]

The subject of assay [2] is MCAO rats. Nature of the assay: Neurological symptoms of MCAO rats (Zea Longa 5 grades). Conditions: 0-4 points; for neurological symptoms evaluation (3 d): model group 1.74 ± 0.73; for neurological symptoms evaluation (7 d): model group 1.61 ± 0.96. Here is the method: 140 healthy SD male rats, weighing 280-300 g, provided by Beijing Vital River Laboratories, certificate No.: SCXK (Jing) 2002-2003.
Tetramethylpyrazine (TMP), vanillic acid, LQC-T4 (self made), the purity ≧98%, determined using high performance liquid chromatography (HPLC), which met the requirement of experiment, the powder being carefully sealed and preserved at 4° C., and imodipine (ShanDong XinHua Pharmaceutical CO., Ltd, batch No.: 0908164).
The method of [Koizumi J, Yoshida Y, Nakazawa T, Ooneda G. Experimental studies of ischemia brain edema, I: A new experimental model of cerebral embolism in rats in which recirculation can be introduced in the ischemic area[J]. Jpn J Stroke, 1986, 8:1-8] was referred to in order to establish the MCAO model. After the rats were anesthetized and the skin thereof was disinfected by ethanol. By cutting right in the middle of the neck, the right common carotid artery, internal carotid artery and external carotid artery were separated and the common carotid artery and external carotid artery were ligated. The internal carotid artery was clamped with a bulldog clamp. A cut was made at the crotch of the external carotid artery and the internal carotid artery followed by releasing the bulldog clamp. The nylon wire was inserted into the cut with the deep of about a little longer than 18 mm to achieve the cerebral ischemia caused by cerebral artery occlusion. Next, the external carotid artery was ligated and the nylon wire was fixed. In sham operation group, the right common carotid artery, the external carotid artery and the internal carotid artery were only exposed and separated. The rats were routinely raised in different cages. 0.5 ml penicillin was continuously injected into every mouse for three days after the surgery.
The evaluating standard of the neurological symptoms of MCAO rats were carried out according to the Zea Longa 5 grades evaluating method, that is, the rats were evaluated when they were conscious after 6 h after the surgery: no apparent neurological symptom, 0 point; not being able to completely stretch the left front claw, 1 point; whirling leftward, 2 point; leaning leftward when walking, 3 point; having an epileptic seizure, losing consciousness and not being able to walk independently, as 4 point. The rats getting 1-3 point were selected for the subsequent experiment. The MCAO rats having the same point were distributed randomly and averagely to each experimental group.
There were sham operation group, model group, Nimodipine group, LQC-T 4 large dosage group, LQC-T4 small dosage group, TMP group and TMP+Vanillic acid group. 0.5% CMC-Na (1 ml·100 g^−1) was administrated intragastrically to the blank group and model group, two dosage groups of 120 mg·kg^−1 and 60 mg·kg^−1 were intragastrically administrated to the LQC-T4(1 ml·100 g^−1) group, and 74 mg·kg^−1 TMP+46 mg·kg^−1 vanillitc acid (1 ml·100 g^−1) were intragastrically administrated, once a day continuously for 10 days.
The SPSS 11.0 software pack was used to carry out the statistical analysis of all the data. The comparison of the enumeration data was carried out with X^2 test P<0.05 had statistical meaning.

In assay [3] the test system is MDA. Nature of the assay: MDA of MCAO rats (brain homogenate, kit). The settings on record: model group 14.53 ± 3.29. Here is the method:
as §1, §2, §3, §4

[4] abbreviates: 30 mg/kg once per day for 10 days.
[5] abbreviates: 60 mg/kg intragastrically once per day for 10 days.
Where [6] appears, read: 120 mg/kg intragastrically once per day for 10 days.
Setting [7] is: 60 mg/kg intragastrically once a day.
The mark [8] stands for this setting: 120 mg/kg intragastrically once a day.
Setting [9] is: 37 mg/kg once per day for 10 days.

For `COCCOC(=O)C1=C(C)NC(C)=C(C(=O)OC(C)C)C1c1cccc([N+](=O)[O-])c1` (stereo not shown) [Nimodipine, reference compound], the SOD in assay [1] (setting [4]) was determined as 79.85 ± 36.57. Moreover, in assay [2] (30 mg/kg once a day), the “neurological symptoms evaluation (3 d)” value came out at 1.35 ± 0.49 and the “neurological symptoms evaluation (7 d)” value is listed as 1.11 ± 0.48. In assay [3] (setting [4]), the MDA came to 13.70 ± 6.56.

`COc1cc(C(=O)OCc2nc(C)c(C)nc2C)ccc1OCc1nc(C)c(C)nc1C` [LQC-T4, (3,5,6-trimethylpyrazine-2-yl)methyl 3-methoxy-4-((3,5,6-trimethylpyrazine-2-yl)methoxy) benzoate]: the SOD worked out at 75.29 ± 30.08 in assay [1] (setting [5]) and 85.03 ± 56.03 in assay [1] (setting [6]). Moreover, the figures for the “neurological symptoms evaluation (3 d)” value in assay [2] (setting [7]) and in assay [2] (setting [8]) were 1.40 ± 0.51 and 1.29 ± 0.47, respectively. In addition, the “neurological symptoms evaluation (7 d)” value in assay [2] (setting [7]) is 1.26 ± 0.35; in assay [2] (setting [8]), 1.60 ± 0.74. In addition, the MDA in assay [3] (setting [5]) was determined as 14.32 ± 6.31; in assay [3] (setting [6]) it was 11.08 ± 4.53.

As to `Cc1nc(C)c(C)nc1C` [TMP, tetramethylpyrazine, reference compound], the SOD in assay [1] (setting [9]) came out at 61.58 ± 16.23. Further, in assay [2] (37 mg/kg once a day), the “neurological symptoms evaluation (3 d)” value is on record as 1.36 ± 0.50 and the “neurological symptoms evaluation (7 d)” value worked out at 1.67 ± 0.78. In assay [3] (setting [9]), this compound registered an MDA of 13.27 ± 3.96.
